One data set addresses human NK1 receptors (Homo sapiens, UniProt P25103). Description: Affinity for the NK1 receptor, [3H]substance P displacement binding assay. The note with it: human NK1 receptors in CHO cells (Semliki virus expression system), [3H]substance P 0.6 nM, 60 min at room temperature; for Ki: read-out: pKi (affinity to the NK-1 receptor) (converted). As to the method:
The affinity of test compounds for the NK1 receptor was evaluated at human NK1 receptors in CHO cells infected with the human NK1 receptor (using the Semliki virus expression system) and radiolabelled with [^3H]substance P (final concentration 0.6 nM). Binding assays were performed in HEPES buffer (50 mM, pH 7.4) containing BSA (0.04%) leupeptin (8 μg/ml), MnCl2 (3 mM) and phosphoramidon (2 μM). Binding assays consisted of 250 μl of membrane suspension (1.25×10^5 cells/assay tube), […] of buffer of displacing agent and 125 μl of [^3H]substance P. Displacement curves were determined with at least seven concentrations of the compound. The assay tubes were incubated for 60 min at room temperature after which time the tube contents were rapidly filtered under vacuum through GF/C filters presoaked for 60 min with PEI (0.3%) with 2×2 ml washes of HEPES buffer (50 mM, pH 7.4). The radioactivity retained on the filters was measured by scintillation counting. All assays were performed in triplicate in at least 2 separate experiments.

human NK1 receptors, sequence (P25103 whole entry): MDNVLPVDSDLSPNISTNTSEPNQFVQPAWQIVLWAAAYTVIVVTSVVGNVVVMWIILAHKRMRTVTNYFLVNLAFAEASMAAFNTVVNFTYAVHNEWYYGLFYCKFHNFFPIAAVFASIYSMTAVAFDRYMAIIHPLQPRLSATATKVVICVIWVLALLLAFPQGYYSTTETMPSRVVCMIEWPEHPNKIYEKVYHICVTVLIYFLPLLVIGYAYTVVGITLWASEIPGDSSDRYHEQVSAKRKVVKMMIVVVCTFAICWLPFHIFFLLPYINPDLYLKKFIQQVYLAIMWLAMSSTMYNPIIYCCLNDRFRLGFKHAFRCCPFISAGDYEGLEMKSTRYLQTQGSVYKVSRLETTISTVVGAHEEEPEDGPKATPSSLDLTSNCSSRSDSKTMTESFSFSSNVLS

Regarding `O=C(c1cc(C(F)(F)F)cc(C(F)(F)F)c1)N1CCC2(CC1)C(=O)NC(=O)N2c1ccccc1Cl`, the melting point (as a rule, the temperature of the solid-liquid transition) was 153 to 154 °C.

As to `CC1NC(=O)C2(CCN(C(=O)c3cc(C(F)(F)F)cc(C(F)(F)F)c3)CC2)N1c1ccccc1` (racemic) [Example 91, (rac)-8-(3,5-Bis-trifluoromethyl-benzoyl)-2-methyl-1-phenyl-1,3,8-triaza-spiro[4.5]decan-4-one], on human NK1 receptors, the Ki is 7.59 nM.

For `Cc1ccccc1C1CNC(=O)C12CCN(C(=O)c1cc(C(F)(F)F)cc(C(F)(F)F)c1)CC2` (racemic) [Example 176, (rac)-8-(3,5-Bis-trifluoromethyl-benzoyl)-4-o-tolyl-2,8-diaza-spiro[4.5]decan-1-one], the Ki at human NK1 receptors is 7.59 nM.

In the case of `O=C(c1cc(C(F)(F)F)cc(C(F)(F)F)c1)N1CCC2(CC1)C(=O)NCN2c1ccccc1` [Example 1, 8-(3,5-Bis-trifluoromethyl-benzoyl)-1-phenyl-1,3,8-triaza-spiro[4.5]decan-4-one], the melting point stood at 251 °C.

Take `COc1nc(OC)nc(N2CN(c3ccccc3)C3(CCN(C(=O)c4cc(C(F)(F)F)cc(C(F)(F)F)c4)CC3)C2=O)n1` [Example 6, 8-(3,5-Bis-trifluoromethyl-benzoyl)-3-(4,6-dimethoxy-[1,3,5]triazin-2-yl)-1-phenyl-1,3,8-triaza-spiro[4.5]decan-4-one]: the Ki on human NK1 receptors is 2.19 nM.

As for `O=C(c1cc(C(F)(F)F)cc(C(F)(F)F)c1)N1CCC2(CC1)C(=O)N(c1ncc(Cl)cc1Cl)CN2c1ccccc1` [Example 26, 8-(3,5-Bis-trifluoromethyl-benzoyl)-3-(3,5-dichloro-pyridin-2-yl)-1-phenyl-1,3,8-triaza-spiro[4.5]decan-4-one], on human NK1 receptors, the Ki was 33.9 nM.

As for `COc1nc(OC)nc(N2CN(c3ccc(Cl)c(Cl)c3)C3(CCN(C(=O)c4cc(C(F)(F)F)cc(C(F)(F)F)c4)CC3)C2=O)n1` [Example 39, 8-(3,5-Bis-trifluoromethyl-benzoyl)-1-(3,4-dichloro-phenyl)-3-(4,6-dimethoxy-[1,3,5]triazin-2-yl)-1,3,8-triaza-spiro[4.5]decan-4-one], the Ki at human NK1 receptors was 93.3 nM.

Turning to `Cc1ccccc1N1CN(Cc2cccnc2)C(=O)C12CCN(C(=O)c1cc(C(F)(F)F)cc(C(F)(F)F)c1)CC2` [Example 45, 8-(3,5-Bis-trifluoromethyl-benzoyl)-3-pyridin-3-yl-methyl-1-o-tolyl-1,3,8-triaza-spiro[4.5]decan-4-one], the “pKi (affinity to the NK-1 receptor)” value on human NK1 receptors was determined as 8.29.

`Cc1ccccc1N1CN(CCN2CCCC2)C(=O)C12CCN(C(=O)c1cc(C(F)(F)F)cc(C(F)(F)F)c1)CC2` [Example 58, 8-(3,5-Bis-trifluoromethyl-benzoyl)-3-(2-pyrrolidin-1-yl-ethyl)-1-o-tolyl-1,3,8-triaza-spiro[4.5]decan-4-one]: on human NK1 receptors, the Ki is 8.32 nM.

For the compound `O=C(c1cc(C(F)(F)F)cc(C(F)(F)F)c1)N1CCC2(CC1)C(=O)N(c1cc(Cl)ncn1)CN2c1ccccc1` [Example 61, 8-(3,5-Bis-trifluoromethyl-benzoyl)-3-(6-chloro-pyrimidin-4-yl)-1-phenyl-1,3,8-triaza-spiro[4.5]decan-4-one], the melting point was in the range of 212 to 214 °C.

Take `O=C(c1cc(C(F)(F)F)cc(C(F)(F)F)c1)N1CCC2(CC1)C(=O)NCN2c1cccc(Cl)c1` [Example 63, 8-(3,5-Bis-trifluoromethyl-benzoyl)-1-(3-chloro-phenyl)-1,3,8-triaza-spiro[4.5]decan-4-one]: the melting point is 235 to 236 °C.

For `O=C(c1cc(C(F)(F)F)cc(C(F)(F)F)c1)N1CCC2(CC1)C(=O)NCN2c1ccc(Cl)cc1` [Example 64, 8-(3,5-Bis-trifluoromethyl-benzoyl)-1-(4-chloro-phenyl)-1,3,8-triaza-spiro[4.5]decan-4-one], the melting point is 233 to 235 °C.

Compound `O=C(c1cc(C(F)(F)F)cc(C(F)(F)F)c1)N1CCC2(CC1)C(=O)NCN2c1ccc(Cl)c(Cl)c1` [Example 65, 8-(3,5-Bis-trifluoromethyl-benzoyl)-1-(3,4-dichloro-phenyl)-1,3,8-triaza-spiro[4.5]decan-4-one] yielded a melting point of 220 to 222 °C.

For the compound `Cc1ccccc1N1CNC(=O)C12CCN(C(=O)c1cc(C(F)(F)F)cc(C(F)(F)F)c1)CC2` [Example 66, 8-(3,5-Bis-trifluoromethyl-benzoyl)-1-o-tolyl-1,3,8-triaza-spiro[4.5]decan-4-one], the melting point lay in the range of 164 to 168 °C.

As to `O=C(c1cc(C(F)(F)F)cc(C(F)(F)F)c1)N1CCC2(CC1)C(=O)NCN2c1ccccc1Cl` [Example 67, 8-(3,5-Bis-trifluoromethyl-benzoyl)-1-(2-chloro-phenyl)-1,3,8-triaza-spiro[4.5]decan-4-one], the melting point lay in the range of 157 to 159 °C.

As to `CN1CN(c2ccccc2Cl)C2(CCN(C(=O)c3cc(C(F)(F)F)cc(C(F)(F)F)c3)CC2)C1=O` [Example 70, 8-(3,5-Bis-trifluoromethyl-benzoyl)-1-(2-chloro-phenyl)-3-methyl-1,3,8-triaza-spiro[4.5]decan-4-one], the Ki on human NK1 receptors is 4.27 nM.

With `Cc1ccccc1C1=CN(C)C(=O)C12CCN(C(=O)c1cc(C(F)(F)F)cc(C(F)(F)F)c1)CC2` [Example 170, 8-(3,5-Bis-trifluoromethyl-benzoyl)-2-methyl-4-o-tolyl-2,8-diaza-spiro[4.5]dec-3-en-1-one], the Ki on human NK1 receptors was 11 nM.

Consider “Rac-8-(3,5-Bis-trifluoromethyl-benzoyl)-3-(2-methoxy-ethyl)-2-methyl-1-o-tolyl-1,3,8-triaza-spiro[4.5]decan-4-one [Example 137]”, for which the “pKi (affinity to the NK-1 receptor)” value at human NK1 receptors is reported as 8.34.

The values above are taken from patent US6482829B2, “Substituted heterocyclic siprodecane compound active as an antagonist of neurokinin 1 receptor” (Hoffmann-La Roche Inc., priority 2000, dated 2002).
